Experimental findings from US11014911B2, “CDK2 inhibitors” (Pfizer Inc., priority 2019, dated 2021) are described below.

This experiment addresses CDK2/Cyclin E1 full length (Homo sapiens (Human), UniProt P24941). In words: CDK2/Cyclin E1 full length mobility shift assay. The experiment is classed as biochemical.

For `CC[C@H](C)NC(=O)O[C@@H]1CC[C@H](c2cc(NC(=O)Cc3ccccc3S(N)(=O)=O)n[nH]2)C1` [Example 49], the inhibition constant (Ki) amounted to 0.19 nM.
Under `COc1cc(C(=O)Nc2cc([C@H]3CC[C@@H](OC(=O)N[C@@H](C)CC(F)(F)F)C3)[nH]n2)n(C)n1` [Example 94] stands 0.15 nM; under `COc1cnc(CC(=O)Nc2cc([C@H]3CC[C@@H](OC(=O)N[C@@H](C)C4CC4)C3)[nH]n2)cn1` [Example 106], 0.76 nM.
Under `Cn1ncc(CC(=O)Nc2cc([C@H]3CC[C@@H](OC(=O)NC(C)(C)C)C3)[nH]n2)n1` [Example 110] stands 0.29 nM; under `CC(C)(C)NC(=O)O[C@@H]1CC[C@H](c2cc(NC(=O)Cc3cc(Cl)ccn3)n[nH]2)C1` [Example 115], 0.23 nM.
With `CC1(NC(=O)O[C@@H]2CC[C@H](c3cc(NC(=O)Cc4cnc(C(F)(F)F)cn4)n[nH]3)C2)CC1` [Example 130] the figure was 0.25 nM.
`Cc1cnc(CC(=O)Nc2cc([C@H]3CC[C@@H](OC(=O)NC4(C)CC4)C3)[nH]n2)cc1Cl` [Example 131]: the inhibitory constant (Ki) was determined as 0.2 nM.
Consider `CC1(NC(=O)O[C@@H]2CC[C@H](c3cc(NC(=O)Cc4ccc5ncccc5n4)n[nH]3)C2)CC1` [Example 132], for which the inhibition constant Ki is 0.19 nM.
Under `CCCNC(=O)O[C@H]1CC[C@@H](c2cc(NC(=O)Cc3c[nH]cn3)n[nH]2)C1` [Example 165, (1S,3R)-3-{3-[(1H-imidazol-4-ylacetyl)amino]-1H-pyrazol-5-yl}cyclopentyl propylcarbamate] stands 2.28 nM; under `CCCNC(=O)O[C@H]1CC[C@@H](c2cc(NC(=O)Cc3cn4ccccc4n3)n[nH]2)C1` [Example 191, (1S,3R)-3-{3-[(imidazo[1,2-a]pyridin-2-ylacetyl)amino]-1H-pyrazol-5-yl}cyclopentyl propylcarbamate], 3.33 nM.
Under `CCCNC(=O)O[C@H]1CC[C@@H](c2cc(NC(=O)Cc3cc(OC)ncc3O)n[nH]2)C1` [Example 193, (1S,3R)-3-(3-{[(5-hydroxy-2-methoxypyridin-4-yl)acetyl]amino}-1H-pyrazol-5-yl)cyclopentyl propylcarbamate] stands 0.41 nM; under `CCCNC(=O)O[C@H]1CC[C@@H](c2cc(NC(=O)Cc3ccnc(OC)c3O)n[nH]2)C1` [Example 194, (1S,3R)-3-(3-{[(3-hydroxy-2-methoxypyridin-4-yl)acetyl]amino}-1H-pyrazol-5-yl)cyclopentyl propylcarbamate], 0.8 nM; under `CCCNC(=O)O[C@@H]1CC[C@H](c2cc(NC(=O)c3ccnn3CCN(C)C)n[nH]2)C1` [Example 195, (1R,3S)-3-{3-[({1-[2-(dimethylamino)ethyl]-1H-pyrazol-5-yl}carbonyl)amino]-1H-pyrazol-5-yl}cyclopentyl propylcarbamate], 4.39 nM.
On to `CCCNC(=O)O[C@@H]1CC[C@H](c2cc(NC(=O)Cc3cccc4ncsc34)n[nH]2)C1` [Example 196, (1R,3S)-3-{3-[(1,3-benzothiazol-7-ylacetyl)amino]-1H-pyrazol-5-yl}cyclopentyl propylcarbamate], for which the Ki amounted to 1.44 nM.
With `CCCNC(=O)O[C@H]1CC[C@@H](c2cc(NC(=O)Cc3cn4c(C)csc4n3)n[nH]2)C1` [Example 199, (1S,3R)-3-(3-{[(3-methylimidazo[2,1-b][1,3]thiazol-6-yl)acetyl]amino}-1H-pyrazol-5-yl)cyclopentyl propylcarbamate] the figure was 3.45 nM; with `CCCNC(=O)O[C@H]1CC[C@@H](c2cc(NC(=O)Cc3cn4c(C)c(C)sc4n3)n[nH]2)C1` [Example 200, (1S,3R)-3-(3-{[(2,3-dimethylimidazo[2,1-b][1,3]thiazol-6-yl)acetyl]amino}-1H-pyrazol-5-yl)cyclopentyl propylcarbamate], 2.87 nM; with `CCCNC(=O)O[C@@H]1CC[C@H](c2cc(NC(=O)Cc3ccccc3S(N)(=O)=O)n[nH]2)C1` [Example 204, (1R,3S)-3-(3-{[(2-sulfamoylphenyl)acetyl]-amino}-1H-pyrazol-5-yl)cyclopentyl propylcarbamate], 1.13 nM.

The term Ki denotes the dissociation constant of the complex between target and ligand, obtained from inhibition or displacement.
